Source: US20050250752A1, “Cembranoids with chemopreventive activity” (priority 2002, published 2005)

Key:
Raji cells = assay: Viability of treated Raji cells (Trypan Blue staining); type: cell-based
Protocol: (§1) The inhibition of EBV-EA activation was assayed using Raji cells (virus non-producer type). The indicator cells (Raji, 1×10^6/ml) were incubated at 37° C. for 48 h in 1 ml of medium containing n-butyric acid (4 mmol), TPA(12-O-tetradecanoylphorbol 13-acetate)(32 pmol=20 ng in 2 μl DMSO) as inducer and various amounts of test compounds in 5 μl DMSO. Smears were made from the cell suspension, and the activated cells, which were stained by EBV-EA positive serum from nasopharygeal carcinoma patients were detected by an indirect immunofluorescence technique. For each compound, assays were performed in triplicate. The average EBV-EA induction of the test compounds was expressed as a relative ratio to the control experiment (100%), which was carried out only with n-butyric acid plus TPA. The viability of treated Raji cells was assayed by the Trypan Blue staining method.

[1] = system: Epstein-Barr virus early antigen (EBV-EA) of Raji cells induced by tumor promoter (TPA); assay: Inhibition of EBV-EA activation induced by TPA in Raji cells; type: cell-based; settings: for EBV-EA induction, percentage relative to the positive control value (100%): TPA 32 pmol, Raji cells, 48 h
Protocol: as §1

[2] = system: papillomas (mouse skin carcinogenesis induced by DMBA/TPA); assay: Two-stage mouse skin carcinogenesis model induced by DMBA/TPA; type: in vivo, mouse (female ICR); settings: topical 85 nm 1 hour before TPA, ICR mice
Protocol: In the two-stage mouse skin carcinogenesis model induced by DMBA/TPA, the animals (specific pathogen-free female ICR, 6 weeks old) were divided into 5 groups, 15 mice each. The back of each mouse was shaved with surgical clippers, and the mice were topically treated with DMBA (100 μg, 390 nmol) in acetone (0.1 ml) as an initiation treatment. For the positive control group, 1 week after initiation with DMBA, mice were promoted by the application with TPA (1 μg, 1.7 nmol) in acetone (0.1 ml) twice a week. The other four groups received a topical application of each of the sarcophine semi-synthetic derivatives (85 nm) 1 hour before application of the tumor promoter. The incidence of papillomas was observed weekly for 20 weeks. The percentage of mice bearing papillomas and the average number of papillomas per mouse were recorded.

[3] = x 1000 mol ratio/TPA (32 nmol/mL)

## 13S-hydroxysarcophine [Compound 4]
Raji cells; x 10 mol ratio/TPA
  viability percentage of Raji cells (indicator cells): > 80%
Raji cells; x 100 mol ratio/TPA
  viability percentage of Raji cells (indicator cells): > 80%
Raji cells; x 500 mol ratio/TPA
  viability percentage of Raji cells (indicator cells): > 80%
Raji cells; [3]
  viability percentage of Raji cells (indicator cells): 60%
[1]; x 10 mol ratio/TPA
  EBV-EA induction, percentage relative to the positive control value (100%): 100%
[1]; x 100 mol ratio/TPA
  EBV-EA induction, percentage relative to the positive control value (100%): 81.3%
[1]; x 500 mol ratio/TPA
  EBV-EA induction, percentage relative to the positive control value (100%): 62.8%
[1]; [3]
  EBV-EA induction, percentage relative to the positive control value (100%): 14.2%

## CC1=C2CC/C(C)=C/CC[C@]3(C)O[C@H]3CC/C(C)=C/[C@@H]2OC1=O [Compound 3, Sarcophine, reference compound]
Raji cells; human, 48 h, 0.32 nmol/mL
  viability percentage of Raji cells (indicator cells): > 80%
Raji cells; human, 48 h, 3.2 nmol/mL
  viability percentage of Raji cells (indicator cells): > 80%
Raji cells; x 500 mol ratio/TPA
  viability percentage of Raji cells (indicator cells): > 80%
Raji cells; [3]
  viability percentage of Raji cells (indicator cells): 60%
[1]; x 10 mol ratio/TPA
  EBV-EA induction, percentage relative to the positive control value (100%): 100%
[1]; x 100 mol ratio/TPA
  EBV-EA induction, percentage relative to the positive control value (100%): 84.0%
[1]; x 500 mol ratio/TPA
  EBV-EA induction, percentage relative to the positive control value (100%): 67.5%
[1]; [3]
  EBV-EA induction, percentage relative to the positive control value (100%): 19.6%

## CC1=C2CC/C(C=O)=C/CC[C@]3(C)O[C@H]3CC/C(C)=C/[C@@H]2OC1=O [Compound 6, sarcophine-20-carboxyaldehyde]
Raji cells; x 10 mol ratio/TPA
  viability percentage of Raji cells (indicator cells): > 80%
Raji cells; x 100 mol ratio/TPA
  viability percentage of Raji cells (indicator cells): > 80%
Raji cells; x 500 mol ratio/TPA
  viability percentage of Raji cells (indicator cells): > 80%
Raji cells; [3]
  viability percentage of Raji cells (indicator cells): 60%
[1]; x 10 mol ratio/TPA
  EBV-EA induction, percentage relative to the positive control value (100%): 96.0%
[1]; x 100 mol ratio/TPA
  EBV-EA induction, percentage relative to the positive control value (100%): 78.2%
[1]; x 500 mol ratio/TPA
  EBV-EA induction, percentage relative to the positive control value (100%): 60.8%
[1]; [3]
  EBV-EA induction, percentage relative to the positive control value (100%): 12.7%

## C/C1=C\CCC2(C)OC2CC/C(C)=C/C=C(/[C@@](C)(O)CO)CC1 (stereo partly drawn) [Compound 11, 7,8-Epoxy-1,3,11-cembratriene-15R(α),16-diol]
[2]; week 1 of promotion
  Papilloma Bearer (%): 0.0%
  Papillomas/mouse: 0.0
[2]; week 2 of promotion
  Papilloma Bearer (%): 0.0%
  Papillomas/mouse: 0.0
[2]; week 3 of promotion
  Papilloma Bearer (%): 0.0%
  Papillomas/mouse: 0.0
[2]; week 4 of promotion
  Papilloma Bearer (%): 0.0%
  Papillomas/mouse: 0.0
[2]; week 5 of promotion
  Papilloma Bearer (%): 0.0%
  Papillomas/mouse: 0.0
[2]; week 6 of promotion
  Papilloma Bearer (%): 0.0%
  Papillomas/mouse: 0.0
[2]; week 7 of promotion
  Papilloma Bearer (%): 0.0%
  Papillomas/mouse: 0.0
[2]; week 8 of promotion
  Papilloma Bearer (%): 13.3%
  Papillomas/mouse: 0.6
[2]; week 9 of promotion
  Papilloma Bearer (%): 20.0%
  Papillomas/mouse: 1.3
[2]; week 10 of promotion
  Papilloma Bearer (%): 26.6%
  Papillomas/mouse: 1.6
[2]; week 11 of promotion
  Papilloma Bearer (%): 40.0%
  Papillomas/mouse: 1.9
[2]; week 12 of promotion
  Papilloma Bearer (%): 46.6%
  Papillomas/mouse: 2.1
[2]; week 13 of promotion
  Papilloma Bearer (%): 53.3%
  Papillomas/mouse: 2.4
[2]; week 14 of promotion
  Papilloma Bearer (%): 53.3%
  Papillomas/mouse: 2.7
[2]; week 15 of promotion
  Papilloma Bearer (%): 60.0%
  Papillomas/mouse: 3.0
[2]; week 16 of promotion
  Papilloma Bearer (%): 73.3%
  Papillomas/mouse: 3.4
[2]; week 17 of promotion
  Papilloma Bearer (%): 80.0%
  Papillomas/mouse: 3.7
[2]; week 18 of promotion
  Papilloma Bearer (%): 80.0%
  Papillomas/mouse: 4.2
[2]; week 19 of promotion
  Papilloma Bearer (%): 86.6%
  Papillomas/mouse: 4.7
[2]; week 20 of promotion
  Papilloma Bearer (%): 86.6%
  Papillomas/mouse: 5.1

## CC1=CC=C([C@@](C)(O)CO)C[C@@H](O)C(C)=CCCC2(C)OC2CC1 (stereo partly drawn) [Compound 13, 7,8-Epoxy-1,3,11-cembratriene-13R(α),15R(α),16-triol]
Raji cells; x 10 mol ratio/TPA
  viability percentage of Raji cells (indicator cells): > 80%
Raji cells; x 100 mol ratio/TPA
  viability percentage of Raji cells (indicator cells): > 80%
Raji cells; x 500 mol ratio/TPA
  viability percentage of Raji cells (indicator cells): > 80%
Raji cells; [3]
  viability percentage of Raji cells (indicator cells): 60%
[1]; x 10 mol ratio/TPA
  EBV-EA induction, percentage relative to the positive control value (100%): 92.6%
[1]; x 100 mol ratio/TPA
  EBV-EA induction, percentage relative to the positive control value (100%): 72.9%
[1]; x 500 mol ratio/TPA
  EBV-EA induction, percentage relative to the positive control value (100%): 54.2%
[1]; [3]
  EBV-EA induction, percentage relative to the positive control value (100%): 5.7%

## C/C1=C\C=C(\C(C)(O)CO)CC(=O)/C(C)=C/CCC2(C)OC2CC1 (stereo not drawn) [Compound 14, 7,8-Epoxy-13-oxo-1,3,11-cembratriene-15R(α),16-diol]
Raji cells; x 10 mol ratio/TPA
  viability percentage of Raji cells (indicator cells): > 80%
Raji cells; x 100 mol ratio/TPA
  viability percentage of Raji cells (indicator cells): > 80%
Raji cells; x 500 mol ratio/TPA
  viability percentage of Raji cells (indicator cells): > 80%
Raji cells; [3]
  viability percentage of Raji cells (indicator cells): 60%
[1]; x 10 mol ratio/TPA
  EBV-EA induction, percentage relative to the positive control value (100%): 94.0%
[1]; x 100 mol ratio/TPA
  EBV-EA induction, percentage relative to the positive control value (100%): 75.1%
[1]; x 500 mol ratio/TPA
  EBV-EA induction, percentage relative to the positive control value (100%): 56.7%
[1]; [3]
  EBV-EA induction, percentage relative to the positive control value (100%): 8.3%

## C/C1=C\C=C(\C(C)(O)CO)CC/C(C=O)=C/CCC2(C)OC2CC1 (stereo not drawn) [Compound 15, 7,8-Epoxy-1,3,11-cembratriene-15R(α),16-diol-20-carboxyaldehyde]
Raji cells; x 10 mol ratio/TPA
  viability percentage of Raji cells (indicator cells): > 80%
Raji cells; x 100 mol ratio/TPA
  viability percentage of Raji cells (indicator cells): > 80%
Raji cells; x 500 mol ratio/TPA
  viability percentage of Raji cells (indicator cells): > 80%
Raji cells; [3]
  viability percentage of Raji cells (indicator cells): 60%
[1]; x 10 mol ratio/TPA
  EBV-EA induction, percentage relative to the positive control value (100%): 90.6%
[1]; x 100 mol ratio/TPA
  EBV-EA induction, percentage relative to the positive control value (100%): 71.3%
[1]; x 500 mol ratio/TPA
  EBV-EA induction, percentage relative to the positive control value (100%): 52.4%
[1]; [3]
  EBV-EA induction, percentage relative to the positive control value (100%): 3.6%

## C/C1=C\C=C(\C(C)C)[C@@H](O)C/C(C)=C/CC/C(C)=C/CC1 [Sarcophytol-A, sarcophytol A, reference compound]
Raji cells; x 10 mol ratio/TPA
  viability percentage of Raji cells (indicator cells): > 80%
Raji cells; x 100 mol ratio/TPA
  viability percentage of Raji cells (indicator cells): > 80%
Raji cells; x 500 mol ratio/TPA
  viability percentage of Raji cells (indicator cells): > 80%
Raji cells; [3]
  viability percentage of Raji cells (indicator cells): 50%
[1]
  inhibition of EBV-EA activation induced by TPA: 88%
[1]; x 10 mol ratio/TPA
  EBV-EA induction, percentage relative to the positive control value (100%): 97.3%
[1]; x 100 mol ratio/TPA
  EBV-EA induction, percentage relative to the positive control value (100%): 79.1%
[1]; x 500 mol ratio/TPA
  EBV-EA induction, percentage relative to the positive control value (100%): 60.4%
[1]; [3]
  EBV-EA induction, percentage relative to the positive control value (100%): 11.7%
